The record followed here is ChEMBL document CHEMBL5108024, “New C-6 functionalized quinoline NorA inhibitors strongly synergize with ciprofloxacin against planktonic and biofilm growing resistant Staphylococcus aureus strains” (Eur J Med Chem, 2022).

Molecules are shown by their SMILES. Converted amounts (≈) assume the structure as drawn. “And” between values parts separate entries of the source, which are not always exact repeats. Equal entries are not always repeated.

In data set [1] the test system is Staphylococcus aureus. Nature of the data set: Synergistic bactericidal activity against Staphylococcus aureus 1199B overexpressing norA and harboring A116E grlA mutant assessed as reduction in bacterial count by measuring log reduction in colony forming count per ml at 6.25 ug/ml incubated for 4 hrs in presence of ciprofloxacin at 0.25 to 1 times MIC by time kill assay. It is filed as functional. The conditions noted are these: dose 6.25 µg/ml.

The nature of data set [2]: Cytotoxicity against human THP-1 cells assessed as cell viability at 3.13 ug/ml incubated for 24 hrs by MTT assay relative to control. Format: toxicity, cell-based. Particulars: at 3.13 µg/mL, read-out: Activity.
Data set [3] is described as follows: Cytotoxicity against human THP-1 cells assessed as cell viability at 12.5 ug/ml incubated for 24 hrs by MTT assay relative to control. Format: toxicity, cell-based. The conditions noted are these: at 12.5 µg/mL, read-out: Activity. (In general: Formazan colour is commonly taken as a measure of viable cells.)
Data set [4] relates to Staphylococcus aureus. Nature of the data set: Inhibition of EtBr efflux in ciprofloxacin-resistant Staphylococcus aureus 1199B overexpressing norA and harboring A116E grlA mutant assessed as reduction in fluorescence intensity at 50 uM measured for 5 mins by microplate reader analysis relative to control. It is filed as functional.
Data set [5] has as its system Staphylococcus aureus. Kind of data set: Inhibition of EtBr efflux in ciprofloxacin-resistant Staphylococcus aureus 1199B overexpressing norA and harboring A116E grlA mutant assessed as reduction in fluorescence intensity at 10 uM measured for 5 mins by microplate reader analysis relative to control. It is filed as functional.
The subject of data set [6] is Staphylococcus aureus. Kind of data set: Antibacterial activity against ciprofloxacin-resistant Staphylococcus aureus 1199B overexpressing norA and harboring A116E grlA mutant assessed as inhibition of bacterial growth by broth microdilution method. It is filed as functional.
Data set [7] deals with Staphylococcus aureus. Kind of data set: Synergistic antibacterial activity against ciprofloxacin-resistant Staphylococcus aureus 1199B overexpressing norA and harboring A116E grlA mutant assessed as fold reduction in ciprofloxacin MIC at 6.25 uM by broth microdilution method. Format: functional. In general terms: In broth dilution the organism is exposed to a series of concentrations in liquid medium.

The test system of data set [8] is Staphylococcus aureus. Kind of data set: Antibacterial activity against ciprofloxacin-susceptible wild type Staphylococcus aureus 1199 assessed as inhibition of bacterial growth by broth microdilution method. It is filed as functional.
Data set [9] deals with Staphylococcus aureus. Nature of the data set: Antibacterial activity against Staphylococcus aureus K2378 harbouring norA promoting and coding region assessed as inhibition of bacterial growth by broth microdilution method. Format: functional.
Data set [10] concerns Staphylococcus aureus. Kind of data set: Antibacterial activity against norA deleted Staphylococcus aureus K1902 assessed as inhibition of bacterial growth by broth microdilution method. It is filed as functional.
Data set [11] relates to Staphylococcus aureus. Nature of the data set: Synergistic antibacterial activity against Staphylococcus aureus 1199B overexpressing norA and harboring A116E grlA mutant assessed as eight fold minimum potentiating concentration incubated in presence of ciprofloxacin by checkerboard assay. Format: functional.
For data set [12], the system named is Staphylococcus aureus. Kind of data set: Synergistic antibacterial activity against Staphylococcus aureus K2378 overexpressing norA assessed as fold reduction in ciprofloxacin MIC at 0.2 to 12.5 ug/ml by checkerboard assay. Format: functional. The conditions noted are these: dose 0.2-12.5 µg/ml.
Data set [13] is described as follows: Cytotoxicity against human A549 cells assessed as cell viability at 12.5 ug/ml incubated for 24 hrs by MTT assay relative to control. It is filed as toxicity, cell-based. The conditions noted are these: at 12.5 µg/mL, read-out: Activity.
The nature of data set [14]: Cytotoxicity against human A549 cells assessed as cell viability at 3.13 ug/ml incubated for 24 hrs by MTT assay relative to control. Format: toxicity, cell-based. The conditions noted are these: at 3.13 µg/mL, read-out: Activity.
Data set [15] is described as follows: Cytotoxicity against human THP-1 cells assessed as cell viability incubated for 24 hrs by MTT assay. It is filed as toxicity, cell-based.
For data set [16], the system named is Staphylococcus aureus. Kind of data set: Synergistic antibiofilm activity against Staphylococcus aureus 1199B overexpressing norA and harboring A116E grlA mutant assessed as biofilm eradication by measuring ciprofloxacin MBEC at 3.13 ug/ml incubated for 24 hrs by Calgary biofilm device assay. It is filed as functional. The conditions noted are these: dose 3.13 µg/ml.

The subject of data set [17] is Staphylococcus aureus. Kind of data set: Synergistic antibiofilm activity against wild type Staphylococcus aureus 1199 assessed as biofilm eradication by measuring ciprofloxacin MBEC at 3.13 ug/ml incubated for 24 hrs by Calgary biofilm device assay. Particulars: dose 3.13 µg/ml. It is filed as functional.
Data set [18] deals with Staphylococcus aureus. Kind of data set: Synergistic antibiofilm activity against norA deleted Staphylococcus aureus K1902 assessed as biofilm eradication by measuring ciprofloxacin MBEC at 3.13 ug/ml incubated for 24 hrs by Calgary biofilm device assay. Format: functional. Particulars: dose 3.13 µg/ml.
Data set [19] has as its system Staphylococcus aureus. Kind of data set: Synergistic antibiofilm activity against Staphylococcus aureus 1199B overexpressing norA and harboring A116E grlA mutant assessed as biofilm eradication by measuring fold reduction in ciprofloxacin MBEC at 3.13 ug/ml incubated for 24 hrs by Calgary biofilm device assay. It is filed as functional. Particulars: dose 3.13 µg/ml.

For data set [20], the system named is Staphylococcus aureus. Kind of data set: Synergistic antibiofilm activity against wild type Staphylococcus aureus 1199 assessed as biofilm eradication by measuring fold reduction in ciprofloxacin MBEC at 3.13 ug/ml incubated for 24 hrs by Calgary biofilm device assay. Format: functional. Particulars: dose 3.13 µg/ml.
Data set [21] deals with Staphylococcus aureus. Nature of the data set: Synergistic bactericidal activity against Staphylococcus aureus 1199B overexpressing norA and harboring A116E grlA mutant assessed as reduction in bacterial count by measuring log reduction in colony forming count per ml at 6.25 ug/ml incubated for 6 hrs in presence of ciprofloxacin at 0.25 to 1 times MIC by time kill assay. Particulars: dose 6.25 µg/ml. It is filed as functional.

Data set [22] concerns Staphylococcus aureus. Kind of data set: Potentiation of ciprofloxacin-induced antibacterial activity against Staphylococcus aureus 1199B overexpressing norA and harboring A116E grlA mutant assessed as post-antibiotic effect by measuring log reduction in colony forming unit per ml at 6.25 ug/ml preincubated for 1 hr followed by compound washout and measured after 5 hrs. It is filed as functional. Particulars: dose 6.25 µg/ml.

Data set [23] relates to Staphylococcus aureus. Nature of the data set: Potentiation of ciprofloxacin-induced antibacterial activity against Staphylococcus aureus 1199B overexpressing norA and harboring A116E grlA mutant assessed as time for post-antibiotic effect at 6.25 ug/ml preincubated for 1 hr followed by compound washout and measured after 5 hrs. It is filed as functional. Particulars: dose 6.25 µg/ml.

In general, inhibition refers to the share of the control response that was lost under treatment. The term MIC denotes the least concentration at which growth counts as inhibited. What is called CC50 is the concentration that lowers cell viability or growth by half. As for `CCCOc1ccc(-c2cc(OCCN(CC)CC)c3cc(Oc4ccccc4)ccc3n2)cc1`, the “log(activity)” value in the data set with Staphylococcus aureus [1] amounted to 3; in the data set on Staphylococcus aureus [21], 2; in the data set with Staphylococcus aureus [22] it was 1. Also, the figures for the viability at 24 h, 3.13 ug/ml in data set [2] and in data set [14] were 77.3% and 80.1%, respectively. Also, the viability at 24 h, 12.5 ug/ml in [3] came out at 8.2%; in [13], 84.8%. The figures for the inhibition in the data set on Staphylococcus aureus [4] and in the data set on Staphylococcus aureus [5] were 80.9% and 76.1%, respectively. Also, the MIC is > 50 µg/mL and > 531 µM in the data set with Staphylococcus aureus [6]; > 50 µg/mL in the data set with Staphylococcus aureus [8]; 25 µg/mL (≈ 53.1 µM) with Staphylococcus aureus [9]; 25 µg/mL (≈ 53.1 µM) in the data set with Staphylococcus aureus [10]. Moreover, the “fold change (FC)” value with Staphylococcus aureus [7] was “>=8”; in the data set with Staphylococcus aureus [12], 4; with Staphylococcus aureus [19] it was 512; with Staphylococcus aureus [20] it was 286. The MPC with Staphylococcus aureus [11] is 1.56 µg/mL. Moreover, in data set [15], the CC50 at 24 h was > 3.13 µg/mL. The MBEC in the data set on Staphylococcus aureus [16] was determined as 1.25 µg/mL; with Staphylococcus aureus [17], 0.07 µg/mL; in the data set on Staphylococcus aureus [18] it was 40 µg/mL. Also, the Time with Staphylococcus aureus [23] is 1.2 h.
